Test results from PubChem BioAssay (NCI).
Where “and” joins values, the source holds several entries; their conditions need not be identical. Equal values may be shown once.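 Cells were grown in 96-well plates and exposed to each compound for 48 hours at five concentrations; endpoints were interpolated linearly between bracketing concentrations, or set to the highest concentration if not reached. GI50: concentration for 50% inhibition of growth. TGI is the concentration that stops growth completely.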

Columns and labels:
Experiment in all cases: NCI anticancer screen, dose series, 48 h
SK-MEL-5 melanoma = tested on: SK-MEL-5 melanoma
HCC-2998 colon = tested on: HCC-2998 colon
OVCAR-5 ovarian = tested on: OVCAR-5 ovarian
COLO 205 colon = tested on: COLO 205 colon
UACC-62 melanoma = tested on: UACC-62 melanoma
A498 renal = tested on: A498 renal
MDA-MB-435 = tested on: MDA-MB-435
UO-31 renal = tested on: UO-31 renal
OVCAR-4 ovarian = tested on: OVCAR-4 ovarian
T-47D breast = tested on: T-47D breast

Structure (SMILES)	GI50 (SK-MEL-5 melanoma)	TGI (SK-MEL-5 melanoma)	GI50 (HCC-2998 colon)	TGI (HCC-2998 colon)	GI50 (OVCAR-5 ovarian)	TGI (OVCAR-5 ovarian)	GI50 (COLO 205 colon)	TGI (COLO 205 colon)	GI50 (UACC-62 melanoma)	TGI (UACC-62 melanoma)	GI50 (A498 renal)	TGI (A498 renal)	GI50 (MDA-MB-435)	TGI (MDA-MB-435)	GI50 (UO-31 renal)	TGI (UO-31 renal)	GI50 (OVCAR-4 ovarian)	TGI (OVCAR-4 ovarian)	GI50 (T-47D breast)	TGI (T-47D breast)
CCN(CC)CCCC(C)Nc1ccnc2cc(Cl)c(SCc3ccccc3)cc12 (stereo not given)	1310 nM	2580 nM	511 nM	1880 nM	1730 nM	3700 nM	1040 nM	2300 nM	214 nM	585 nM	1220 nM	2680 nM	275 nM	838 nM	1350 nM	2950 nM	1530 nM	4050 nM	1980 nM	4770 nM
COc1cccc(-c2cc(NCc3ccc4c(c3)OCO4)nc(N)n2)c1	43.2 nM	3600 nM	137 nM	2900 nM	488 nM	28800 nM	46.6 nM	198 nM	54.6 nM	18100 nM	33 nM	763 nM	17.5 nM	52.1 nM	104 nM	17000 nM	225 nM	27500 nM	16900 nM	50600 nM
Cc1cccc2c(=O)c3c(sc12)c(NCCN)nc1ccccc13	953 nM	1940 nM	798 nM	1580 nM	834 nM	1600 nM	826 nM	1650 nM	811 nM	1650 nM	2720 nM	6920 nM	911 nM	1670 nM	541 nM	1150 nM	935 nM	2160 nM	685 nM	1600 nM
O=C(Nc1cccc(-n2cc(-c3ccncc3)c(-c3ccc(O)c(Cl)c3)n2)c1)Nc1ccc(Cl)c(C(F)(F)F)c1	1660 nM	3070 nM	2810 nM	6980 nM	3020 nM	13900 nM	1770 nM	3320 nM	2130 nM	5070 nM	2470 nM	7750 nM	1980 nM	4880 nM	2650 nM	7240 nM	2770 nM	9970 nM	2070 nM	6830 nM
N=C(N)c1ccc(-c2ccc(-c3ccco3)o2)cc1F	1640 nM	3040 nM	1940 nM	3800 nM	2700 nM	10300 nM	1800 nM	3620 nM	–	–	1360 nM	4830 nM	1630 nM	3250 nM	1430 nM	3140 nM	2880 nM	11100 nM	2050 nM	5540 nM
CCN1CCN(Cc2ccc3cc(C(=O)Nc4cc(NC(=O)c5ccc6c(c5)OCCO6)ccc4F)ccc3n2)CC1	108 nM	756 nM	51.1 nM	5730 nM	85.8 nM	12500 nM	55.3 nM	1510 nM	57.5 nM	1190 nM	15.9 nM	265 nM	60.8 nM	3420 nM	37.6 nM	1130 nM	77.2 nM	1910 nM	45.1 nM	23000 nM
CCOC(=O)c1c2c(n3cccc(F)c13)C(=O)c1ncccc1C2=O	99.4 nM	3220 nM	1290 nM	15400 nM	1160 nM	18700 nM	1270 nM	7200 nM	222 nM	1280 nM	–	21700 nM	541 nM	10700 nM	18.9 nM	1420 nM	1800 nM	11300 nM	3530 nM	25200 nM
O=C(O)C#Cc1ccc([N+](=O)[O-])cc1	–	> 100000 nM	–	> 100000 nM	–	> 100000 nM	–	> 100000 nM	–	> 100000 nM	–	> 100000 nM	–	> 100000 nM	–	> 100000 nM	–	> 100000 nM	–	> 100000 nM
COc1ccc2cc(C(=O)/C=C/c3ccccc3OC)ccc2c1	2750 nM	15900 nM	5920 nM	13000 nM	18400 nM	49700 nM	3560 nM	49400 nM	1880 nM	11900 nM	6450 nM	30700 nM	570 nM	5030 nM	5930 nM	18800 nM	18900 nM	> 100000 nM	2580 nM	> 89100 nM
COC(=O)C12OCC34C(CC5C(C)=CC(=O)C(O)C5(C)C3C(O)C1O)OC(=O)C(OC(=O)CC(C)C)C24 (stereo not given)	–	–	< 28.1 nM	–	82.5 nM and 58.6 nM	–	425 nM and 50 nM	–	47.8 nM and 50 nM	–	< 57.5 nM	6.27 nM and < 79.1 nM	–	6.97 nM	256 nM and 63.7 nM	–	–	–	–	6 nM
COc1ccc2c(c1)c(=O)oc1cc(OC/C(=N\O)c3ccc(F)cc3)ccc12	16600 nM	30800 nM	16400 nM	33500 nM	34400 nM	> 100000 nM	15600 nM	34600 nM	15100 nM	31200 nM	16700 nM	35300 nM	12600 nM	36200 nM	14300 nM	28900 nM	18500 nM	44500 nM	28400 nM	> 100000 nM
O=C(Nc1cccc2ccccc12)c1cc2ccccc2cc1O	1570 nM	3690 nM	3500 nM	13300 nM	3320 nM	13000 nM	9760 nM	23700 nM	1490 nM	10700 nM	1030 nM	3910 nM	1870 nM	5050 nM	1220 nM	4950 nM	2690 nM	35900 nM	2800 nM	18700 nM
Cc1cc(Cl)ccc1Nc1nc(C(F)(F)F)ccc1C(=O)N/N=C/c1c(Cl)cccc1Cl	573 nM	2440 nM	459 nM	> 100000 nM	888 nM	> 100000 nM	358 nM	1240 nM	489 nM	6380 nM	473 nM	> 22800 nM	357 nM	> 100000 nM	301 nM	–	289 nM	> 100000 nM	331 nM	1980 nM
